Results taken from EP2067489B1, “Glyco-molecular imaging method for grade classification of liver fibrosis and its glyco-molecular imaging agent thereof” (Institute of Nuclear Energy Research Atomic Energy Council, priority 2007, dated 2009).

Experiment: Storage stability at room temperature
Type: physicochemical
Details: stability to air and water-deliquescence

## O=C(O)CN(CCN1CC(=O)OC(=O)C1)CCN1CC(=O)OC(=O)C1 [DTPA anhydride]
  storage time in room temperature: much unstable and easy to water-deliquescent
